Values of other authors in US12569478B2 (priority 2021, dated 2026).

Conditions: in vivo

## C=CCN1CC[C@]23c4c5ccc(O)c4O[C@H]2C(=O)CC[C@@]3(O)[C@H]1C5 [naloxone]
  half-life: ~1 h
